Test results as given in patent US20180353512A1, “COMBINATION THERAPIES FOR TREATING B-CELL MALIGNANCIES” (GILEAD SCIENCES, INC., priority 2015, published 2018).
Where two headings read alike, the source gives them in different places.

What was measured:
OCI-LY10 cells [1] = test: Apoptosis assay, Annexin V flow cytometry; assay type: cell-based; settings: 48 h, Idelalisib = 156 nM, Compound B = 8 nM, DMSO 29
Procedure: (§1) Apoptosis of Idelalisib in combination with Compound B in two DLBCL cell lines, OCI-Ly10 and TMD-8, was also measured. Cells plated at 0.2×10^6 cells/mL in RPMI 1640 supplemented with 20% […] and 1% penicillin and streptomycin. Cells were treated with compound, 156 nM Idelalisib, Compound B and the combination thereof. Control received DMSO at 0.2%. Cells were then incubated at 37 C for 48 hours. Apoptosis was measured using Annexin V/FITC kit, and analyzed by flow cytometry. Apoptosis was also measured using or Annexin V/7ADD kit (Beckman Coulter). Fluorescence was measured by flow cytometry using BD LSRII and the results were analyzed using FACSDiva.

TMD-8 cells [2] = test: Apoptosis assay, Annexin V flow cytometry; assay type: cell-based; settings: 48 h, Idelalisib = 156 nM, Compound B = 8 nM, DMSO 21
Procedure: as §1

[3] = system: A20 mutant (TNFAIP3 Q143*) TMD-8 cells; test: 96-hour Cell Titer Glo viability assay, Ibrutinib-resistant TMD-8; settings: for EC50: Homo sapiens, TMD8, read-out: EC50, cell viability; for sensitivity in cell viability assay: TMD8^A20-Q143*, 96 h
Ri-1 cells = test: CellTiter-Glo cell viability assay, four days (Example 1A); assay type: cell-based; settings: for EC50: Ri-1, Ri-1; for growth of cell line: single agent
Procedure: (§2) In vitro anti-proliferative activity of agents was assessed using CellTiter-Glo™ Assay (Promega), which quantifies cellular ATP level. Test compounds were dissolved in DMSO to prepare 10 mM stock solutions. […] For drug combination studies, a two or three fold horizontal serial dilution pattern was used for Compound B and combined with Idelalisib using a two, three, or four fold vertical serial dilution pattern. […] The final DMSO concentration in the test media was 0.2%. Each combination used replicates of four plates to generate sufficient data for evaluation of synergy scores. […] The assay growth medium for all lines was RPMI supplemented with 20% FBS and […] penicillin-streptomycin. Seeding density was optimized for growth rate over 96 hours for each cell line and was between 10,000-30,000 cells per well of 96 well plates. After four days incubation with agents at 37° C./5% CO2, the CellTiter-Glo™ assay was performed following the manufacturer's protocol. Relative luminescence units were quantified using a Biotek Synergy luminometer.
(§3) Data from a plate was excluded if either Z′<0.5 or the growth of the cell lines was less than one doubling in the four day assay period. Z′ was calculated using the formula: Z′=[1−((3(σstau+σDMSO))/(|μDMSO−μstau|)] where σstau and σDMSO are the standard deviation of the 100% inhibited staurosporine and 0% inhibited DMSO control wells, respectively. μDMSO and μstau are the mean of the […] control wells, respectively. The raw Cell Titer Glo signal was normalized according to the following formula: [(raw value)−(100% inhibited staurosporine control)]/[(DMSO control value)−(100% inhibited staurosporine control)].
(§4) EC50 was determined using GraphPad Prism or Dose Response software by fitting the data to a four parameters variable slope model. […] For combination studies, the EC50 at each test article concentration was determined from graphs of the EC50 of one compound at a fixed dose of second compound. The EC50 shift was calculated by taking the ratio of the EC50 of the single agent by the EC50 at the maximum dose of the second agent.
(§5) Synergy was analyzed using the MacSynergy II program, which calculates a theoretical additive value for the drug combination that is based on the values generated by each drug alone using the Bliss Independence mathematical model. The Bliss independence model assumes that each drug acts independently. The theoretical additive effect for each compound is calculated and then subtracted from the actual effect. Synergy is defined by greater than expected effects while antagonism is defined by less than expected effects. In this example, a synergy volume greater than 50 was considered significant. The EC50 values determined in drug combination studies represent a single experiment run in quadruplicate and therefore may differ slightly from the single agent EC50 values.

Pfeiffer cells = test: as above; assay type: cell-based; settings: for EC50: Homo sapiens
Procedure: as §2, §3, §4, §5

OCI-LY10 cells [4] = test: as above; assay type: cell-based; settings: for EC50: Homo sapiens; for growth of cell line: OCI-LY10, single agent
Procedure: as §2, §3, §4, §5

TMD-8 cells [5] = test: as above; assay type: cell-based; settings: for EC50: Homo sapiens; for growth of cell line: single agent
Procedure: as §2, §3, §4, §5

[6] = system: TMD-8 cells with the BTK (C481F) mutation; test: 96-hour Cell Titer Glo viability assay, Ibrutinib-resistant TMD-8; parameters: Emax: dose or concentration left out as unconfirmed; settings: for sensitivity in cell viability assay: TMD8^BTK-C481F, 96 h
[7] = Idelalisib 0 nM, read-out: EC50 of Compound B in Combination with Idelalisib
[8] = bound stated for three ABC-DLBCL cell lines, read-out: EC50, growth inhibition, single agent
[9] = OCI-Ly10, OCI-LY10, bound stated for three ABC-DLBCL cell lines, read-out: EC50, growth inhibition, single agent
[10] = TMD8, TMD-8, bound stated for three ABC-DLBCL cell lines, read-out: EC50, growth inhibition, single agent
[11] = Compound B 45 nM, read-out: EC50 of Idelalisib when Combined with Compound B

For CC#CC(=O)N1CC[C@@H](n2c(=O)n(-c3ccc(Oc4ccccc4)cc3)c3c(N)ncnc32)C1 [Compound B, 6-amino-9-[(3R)-1-(2-butynoyl)-3-pyrrolidinyl]-7-(4-phenoxyphenyl)-7,9-dihydro-8H-purin-8-one], the “% Annexin V+” value (OCI-LY10 cells [1]) was 26%, the “% Annexin V+” value (TMD-8 cells [2]) was 44% and the EC50 [3] was over 10000 nM. The “sensitivity in cell viability assay” value [3] was “resistant”, the EC50 (Ri-1 cells; [7]) was 5 nM and the EC50 (Ri-1 cells; Idelalisib 156 nM, read-out: EC50 of Compound B in Combination with Idelalisib) was 2 nM. The EC50 (Ri-1 cells; Idelalisib 625 nM, read-out: EC50 of Compound B in Combination with Idelalisib) was 2 nM, the EC50 (Ri-1 cells; [8]) was under 26 nM and the “growth of cell line” value (Ri-1 cells; Ri-1) was “inhibited the growth”. The “Compound B EC50 shift (fold)” value (Ri-1 cells; Ri-1, single agent EC50 / EC50 at maximum dose of Idelalisib) was 2.5 fold, the EC50 (Pfeiffer cells; [7]) was over 10000 nM and the “Compound B EC50 shift (fold)” value (Pfeiffer cells; No EC50 shift observed at up to 2.5 μM) was “None^c”. For the same compound, the EC50 (OCI-LY10 cells [4]; [9]) was under 26 nM, the EC50 (OCI-LY10 cells [4]; OCI-Ly10, OCI-LY-10, Idelalisib 0 nM, read-out: EC50 of Compound B in Combination with Idelalisib) was 6 nM and the EC50 (OCI-LY10 cells [4]; OCI-Ly10, OCI-LY-10, Idelalisib 156 nM, read-out: EC50 of Compound B in Combination with Idelalisib) was 3 nM. The EC50 (OCI-LY10 cells [4]; OCI-Ly10, OCI-LY-10, Idelalisib 625 nM, read-out: EC50 of Compound B in Combination with Idelalisib) was 3 nM, the “growth of cell line” value (OCI-LY10 cells [4]) was “inhibited the growth” and the “Compound B EC50 shift (fold)” value (OCI-LY10 cells [4]; OCI-LY-10, single agent EC50 / EC50 at maximum dose of Idelalisib) was 2 fold. For the same compound, the EC50 (TMD-8 cells [5]; TMD8, TMD-8, Idelalisib 0 nM, read-out: EC50 of Compound B in Combination with Idelalisib) was 11 nM, the EC50 (TMD-8 cells [5]; TMD8, TMD-8, Idelalisib 156 nM, read-out: EC50 of Compound B in Combination with Idelalisib) was 5 nM and the EC50 (TMD-8 cells [5]; TMD8, TMD-8, Idelalisib 625 nM, read-out: EC50 of Compound B in Combination with Idelalisib) was 4 nM. For the same compound, the EC50 (TMD-8 cells [5]; [10]) was under 26 nM, the “growth of cell line” value (TMD-8 cells [5]; TMD-8) was “inhibited the growth” and the “Compound B EC50 shift (fold)” value (TMD-8 cells [5]; TMD-8, single agent EC50 / EC50 at maximum dose of Idelalisib) was 2.75 fold. The “sensitivity in cell viability assay” value [6] was “resistant”.
CCC(Nc1ncnc2[nH]cnc12)c1nc2cccc(F)c2c(=O)n1-c1ccccc1 (centres unmarked) [Idelalisib, 2-(1-((9H-Purin-6-yl)amino)propyl)-5-fluoro-3-phenylquinazolin-4(3H)-one] was tested, and the “% Annexin V+” value (OCI-LY10 cells [1]) was 25%, the “% Annexin V+” value (TMD-8 cells [2]) was 45% and the EC50 [3] was at least 4300 nM. For the same compound, the “sensitivity in cell viability assay” value [3] was “resistant”, the EC50 (Ri-1 cells; Compound B 0 nM, read-out: EC50 of Idelalisib when Combined with Compound B) was 442 nM and the EC50 (Ri-1 cells; Compound B 5 nM, read-out: EC50 of Idelalisib when Combined with Compound B) was 372 nM. It also gave an EC50 (Ri-1 cells; Compound B 15 nM, read-out: EC50 of Idelalisib when Combined with Compound B) of 372 nM, an EC50 (Ri-1 cells; [11]) of 372 nM and an EC50 (Ri-1 cells; [8]) of under 210 nM. For the same compound, the “growth of cell line” value (Ri-1 cells; Ri-1) was “inhibited the growth”, the “Idelalisib EC50 shift (fold)” value (Ri-1 cells; Ri-1, single agent EC50 / EC50 at maximum dose of Compound B) was 1.2 fold and the EC50 (Pfeiffer cells; [11]) was 174 nM. The “Idelalisib EC50 shift (fold)” value (Pfeiffer cells; single agent EC50 / EC50 at maximum dose of Compound B) was 1 fold, the EC50 (OCI-LY10 cells [4]; OCI-Ly10, OCI-LY10, addition of Compound B at 6 nM, read-out: EC50 of idelalisib) was 24 nM and the EC50 (OCI-LY10 cells [4]; OCI-Ly10, OCI-LY10, addition of Compound B at 12 nM, read-out: EC50 of idelalisib) was 19 nM. For the same compound, the EC50 (OCI-LY10 cells [4]; OCI-Ly10, OCI-LY10, addition of Compound B at 25 nM, read-out: EC50 of idelalisib) was 13 nM, the EC50 (OCI-LY10 cells [4]; [9]) was under 210 nM and the EC50 (OCI-LY10 cells [4]; OCI-Ly10, OCI-LY10, without Compound B, read-out: EC50 of idelalisib) was 122 nM. The EC50 (OCI-LY10 cells [4]; OCI-Ly10, OCI-LY-10, Compound B 0 nM, read-out: EC50 of Idelalisib when Combined with Compound B) was 440 nM, the EC50 (OCI-LY10 cells [4]; OCI-Ly10, OCI-LY-10, Compound B 5 nM, read-out: EC50 of Idelalisib when Combined with Compound B) was 38 nM and the EC50 (OCI-LY10 cells [4]; OCI-Ly10, OCI-LY-10, Compound B 15 nM, read-out: EC50 of Idelalisib when Combined with Compound B) was 22 nM. The EC50 (OCI-LY10 cells [4]; OCI-Ly10, OCI-LY-10, Compound B 45 nM, read-out: EC50 of Idelalisib when Combined with Compound B) was 5 nM, the “growth of cell line” value (OCI-LY10 cells [4]) was “inhibited the growth” and the “Idelalisib EC50 shift (fold)” value (OCI-LY10 cells [4]; OCI-LY-10, single agent EC50 / EC50 at maximum dose of Compound B) was 88 fold. The EC50 (TMD-8 cells [5]; TMD8, TMD8, addition of Compound B at 6 nM, read-out: EC50 of idelalisib) was 108 nM, the EC50 (TMD-8 cells [5]; TMD8, TMD8, addition of Compound B at 12 nM, read-out: EC50 of idelalisib) was 34 nM and the EC50 (TMD-8 cells [5]; TMD8, TMD8, addition of Compound B at 25 nM, read-out: EC50 of idelalisib) was 24 nM. For the same compound, the EC50 (TMD-8 cells [5]; TMD8, TMD8, without Compound B, read-out: EC50 of idelalisib) was 254 nM, the EC50 (TMD-8 cells [5]; TMD8, TMD-8, Compound B 0 nM, read-out: EC50 of Idelalisib when Combined with Compound B) was 254 nM and the EC50 (TMD-8 cells [5]; TMD8, TMD-8, Compound B 5 nM, read-out: EC50 of Idelalisib when Combined with Compound B) was 130 nM. The EC50 (TMD-8 cells [5]; TMD8, TMD-8, Compound B 15 nM, read-out: EC50 of Idelalisib when Combined with Compound B) was 32 nM, the EC50 (TMD-8 cells [5]; TMD8, TMD-8, Compound B 45 nM, read-out: EC50 of Idelalisib when Combined with Compound B) was 24 nM and the EC50 (TMD-8 cells [5]; [10]) was under 210 nM. For the same compound, the “growth of cell line” value (TMD-8 cells [5]; TMD-8) was “inhibited the growth”, the “Idelalisib EC50 shift (fold)” value (TMD-8 cells [5]; TMD-8, single agent EC50 / EC50 at maximum dose of Compound B) was 10.6 fold and the Emax ([6]; Homo sapiens, TMD8, read-out: Emax, growth inhibition) was 14%. For the same compound, the “sensitivity in cell viability assay” value [6] was “resistant”.
